Values after ≈ are worked out from the molar mass of the structure shown. Read-outs that look alike come from different tables or passages of the source.
Assays:
[1] = Storage stability of 1% mesotrione / isoxaflutole salt mixtures, 8 weeks at +45° C. vs −18° C.; assay type: physicochemical; set-up: Start: unit not given here; conditions: for 45° C. / % decomposition: 8 weeks at 45° C.; for Start: held at −18° C. 8 weeks
Protocol: Millbase preparations of mesotrione and isoxaflutole were made using the following method:
The sample is placed in a round bottomed flask (˜140 mls) and mixed at 150 rpm for 15 minutes until homogeneous. An equal volume of glass beads is added to the flask (0.8-1.0 mm diameter) and the sample is milled at 650 rpm of 60 minutes. The particle size was checked. Further milling of the sample continued (60 minutes for mesotrione and 150 minutes for isoxaflutole). The particle size was checked again and all particles met the specification of 5 microns (D(4,3) volume weighted mean diameter).
The samples were extracted under vacuum through a sieve to disengage the beads from the millbases. The two millbases shown below were checked for AI content and used in the preparation of the salt mixtures. The final mixtures (see below) were then placed on storage at −18° C. (controlled initial sample) and +45° C. for 8 weeks. Analysis was then carried out using validated methods. The salts used were: glyphosate potassium aqueous solution; diquat dibromide aqueous solution; paraquat dichloride aqueous solution.
Analytical Results: storage time was 8 weeks; sample denoted as “start” was held at −18° C. for the same period.

[2] = Amount of mesotrione in solution by UV-visible spectrophotometry in aqueous electrolyte; assay type: physicochemical; conditions: pH approximately 5
Protocol: Eight aqueous millbase formulations were made comprising mesotrione millbase (12 g/L or 10,000 approximately) and varying amounts of glyphosate-potassium, ammonium sulphate, and sodium chloride. All samples were held at a pH of approximately 5 by using phosphoric acid for adjustment. The amount of mesotrione in solution was determined using UV-visible spectrophotometry, since the aqueous solubility of mesotrione is related to the expected rate of decomposition of this active ingredient in such systems.

[3] = water, cited from earlier work
[4] = 1% active and diquat pH ~4, Salt % 7.50 (as diquat anion)
[5] = 1% active and diquat pH ~4, Salt % 15.00 (as diquat anion)
[6] = 1% active and diquat pH ~4, Salt % 22.50 (as diquat anion)
[7] = 1% active and paraquat pH ~4, Salt % 10.00 (as paraquat anion)
[8] = 1% active and paraquat pH ~4, Salt % 20.00 (as paraquat anion)
[9] = 1% active and paraquat pH ~4, Salt % 30.00 (as paraquat anion)
[10] = 1% active, no salt, adjusted pH 2
[11] = 1% isoxaflutole unadjusted pH 7.0, no salt
[12] = 1% active and glyphosate pH ~5, Salt % 15.00 (as glyphosate acid equivalent)
[13] = 1% active and glyphosate pH ~5, Salt % 45.00 (as glyphosate acid equivalent)
[14] = 1% mesotrione not adjusted pH 5 (pH ~4.5), no salt

With `CS(=O)(=O)c1cc(C(F)(F)F)ccc1C(=O)c1cnoc1C1CC1` [Isoxaflutole, 5-cyclopropyl-4-(2-methylsulfonyl-4-trifluoromethyl)benzoylisoxazole] the “45° C.” value [1, 4] was 0.94, the “% decomposition” value [1, 4] was 11.30% and the Start [1, 4] was 1.06. For the same compound, the “45° C.” value [1, 5] was 0.94, the “% decomposition” value [1, 5] was 9.50% and the Start [1, 5] was 1.04. For the same compound, the “45° C.” value [1, 6] was 0.87, the “% decomposition” value [1, 6] was 16.50% and the Start [1, 6] was 1.04. For the same compound, the “45° C.” value [1, 7] was 0.99, the “% decomposition” value [1, 7] was 6.00% and the Start [1, 7] was 1.05. For the same compound, the “45° C.” value [1, 8] was 0.90, the “% decomposition” value [1, 8] was 12.00% and the Start [1, 8] was 1.02. The “45° C.” value [1, 9] was 0.80, the “% decomposition” value [1, 9] was 7.00% and the Start [1, 9] was 0.86. For the same compound, the “45° C.” value [1, 10] was 1.02, the “% decomposition” value [1, 10] was “nil” and the Start [1, 10] was 0.98. The “45° C.” value [1, 11] was 0.85, the “% decomposition” value [1, 11] was 17.00% and the Start [1, 11] was 1.06.
With `CS(=O)(=O)c1ccc(C(=O)C2C(=O)CCCC2=O)c([N+](=O)[O-])c1` [Mesotrione, 2-(4-methylsulphonyl-2-nitrobenzoyl)cyclohexane-1,3-dione] the “Concentration of mesotrione in solution” value ([2]; Ammonium sulphate solution 100 g per litre) was 625 ppm, the “Concentration of mesotrione in solution” value ([2]; Ammonium sulphate solution 200 g per litre) was 504 ppm and the “Concentration of mesotrione in solution” value ([2]; Ammonium sulphate solution 300 g per litre) was 391 ppm. For the same compound, the “Concentration of mesotrione in solution” value ([2]; Ammonium sulphate solution 400 g per litre) was 271 ppm, the “Concentration of mesotrione in solution” value ([2]; Ammonium sulphate solution 500 g per litre) was 263 ppm and the “Concentration of mesotrione in solution” value ([2]; Potassium glyphosate 100 g per litre) was 1220 ppm. For the same compound, the “Concentration of mesotrione in solution” value ([2]; Potassium glyphosate 200 g per litre) was 700 ppm, the “Concentration of mesotrione in solution” value ([2]; Potassium glyphosate 300 g per litre) was 480 ppm and the “Concentration of mesotrione in solution” value ([2]; Potassium glyphosate 360 g per litre) was 290 ppm. For the same compound, the “Concentration of mesotrione in solution” value ([2]; Potassium glyphosate 400 g per litre) was 210 ppm, the “Concentration of mesotrione in solution” value ([2]; Potassium glyphosate 500 g per litre) was 180 ppm and the “Concentration of mesotrione in solution” value ([2]; Potassium glyphosate 600 g per litre) was 170 ppm. The “Concentration of mesotrione in solution” value ([2]; Potassium glyphosate 640 g per litre) was 160 ppm, the “Concentration of mesotrione in solution” value ([2]; Sodium Chloride 50 g per litre) was 605 ppm and the “Concentration of mesotrione in solution” value ([2]; Sodium Chloride 105 g per litre) was 549 ppm. For the same compound, the “Concentration of mesotrione in solution” value ([2]; Sodium Chloride 165 g per litre) was 510 ppm, the “Concentration of mesotrione in solution” value ([2]; Sodium Chloride 230 g per litre) was 479 ppm and the “Concentration of mesotrione in solution” value ([2]; Sodium Chloride 300 g per litre) was 443 ppm. The “Concentration of mesotrione in solution” value ([2]; electrolyte: None) was 4700 ppm, the “45° C.” value [1, 4] was 0.96 and the “% decomposition” value [1, 4] was 9.43%. For the same compound, the Start [1, 4] was 1.06, the “45° C.” value [1, 5] was 0.93 and the “% decomposition” value [1, 5] was 13.08%. The Start [1, 5] was 1.07, the “45° C.” value [1, 6] was 0.86 and the “% decomposition” value [1, 6] was 21.10%. The Start [1, 6] was 1.09, the “45° C.” value [1, 12] was 0.86 and the “% decomposition” value [1, 12] was 18.1%. The Start [1, 12] was 1.05, the “45° C.” value [1, 13] was 0.80 and the “% decomposition” value [1, 13] was 14.9%. For the same compound, the Start [1, 13] was 0.94, the “45° C.” value [1, 7] was 0.96 and the “% decomposition” value [1, 7] was 12.73%. For the same compound, the Start [1, 7] was 1.10, the “45° C.” value [1, 8] was 0.98 and the “% decomposition” value [1, 8] was 12.50%. For the same compound, the Start [1, 8] was 1.12, the “45° C.” value [1, 9] was 0.90 and the “% decomposition” value [1, 9] was 18.18%. For the same compound, the Start [1, 9] was 1.10, the “45° C.” value [1, 10] was 0.96 and the “% decomposition” value [1, 10] was 10.28%. The Start [1, 10] was 1.07, the “45° C.” value [1, 14] was 0.83 and the “% decomposition” value [1, 14] was 34.65%. The Start [1, 14] was 1.27, the solubility ([3]; pH 4.8, 20° C.) was 2.2 mg/mL (≈ 6.48 mM) and the solubility ([3]; pH 6.9, 20° C.) was 15 mg/mL (≈ 44.2 mM). For the same compound, the solubility ([3]; pH 9, 20° C.) was 22 mg/mL (≈ 64.8 mM).

— patent publication US20080269060A1, “Herbicidal Formulation” (priority 2004, published 2008)
